Calls of active or inactive are those of the source. The rule behind the calls is not given here.
Experiments:
[1] = tested on: Plasma; assay: Anticoagulant activity in human plasma assessed prothrombin time at 0.25 to 1 uM; format: functional; conditions: dose 0.25-1 µM
[2] = Stability in 50% human plasma assessed as compound degradation at 50 uM measured within 3 hrs by PAGE analysis; format: ADME, cell-free
[3] = tested on: Plasma; assay: Anticoagulant activity in human plasma assessed prothrombin time in presence of complementary sequence of TBA; format: functional, cell-free
[4] = tested on: Plasma; assay: Anticoagulant activity in human plasma assessed prothrombin time in presence of 1.5 fold complementary sequence of TBA; format: functional, cell-free
[5] = Thermodynamic stability assessed as change in melting temperature by CD spectroscopy relative to TBA; format: physicochemical
[6] = Stability in 50% human plasma assessed as compound degradation at 50 uM measured within 3 hrs by PAGE analysis relative to TBA; format: ADME, cell-free
[7] = tested on: Rattus norvegicus; assay: Anticoagulant activity in ferric chloride-induced Sprague-Dawley rat carotid thrombosis model assessed as reduction in thrombus formation by measuring thrombus area at […], iv by H and E staining based analysis; format: functional; set-up: scale not given: the % may be the effect or the level left

Row | SMILES | Stabilty [2] | deltaTm [5] [°C] | Stabilty [6] | PT [1] [s] | Activity [3] | Activity [4] | Activity [7] [%]
1 | Cc1cn([C@H]2C[C@H](OP(=O)(O)OC[C@H]3O[C@@H](n4cnc5c(=O)[nH]c(N)nc54)C[C@@H]3OP(=O)(O)OC[C@H]3O[C@@H](n4cc(C)c(=O)[nH]c4=O)C[C@@H]3OP(=O)(O)OC[C@H]3O[C@@H](n4cnc5c(=O)[nH]c(N)nc54)C[C@@H]3OP(=O)(O)OC[C@H]3O[C@@H](n4cnc5c(=O)[nH]c(N)nc54)C[C@@H]3OP(=O)(O)OC[C@H]3O[C@@H](n4cc(C)c(=O)[nH]c4=O)C[C@@H]3OP(=O)(O)OC[C@H]3O[C@@H](n4cc(C)c(=O)[nH]c4=O)C[C@@H]3OP(=O)(O)OC[C@H]3O[C@@H](n4cnc5c(=O)[nH]c(N)nc54)C[C@@H]3OP(=O)(O)OC[C@H]3O[C@@H](n4cnc5c(=O)[nH]c(N)nc54)C[C@@H]3O)[C@@H](COP(=O)(O)O[C@H]3C[C@H](n4cc(C)c(=O)[nH]c4=O)O[C@@H]3COP(=O)(O)O[C@H]3C[C@H](n4cnc5c(=O)[nH]c(N)nc54)O[C@@H]3COP(=O)(O)O[C@H]3C[C@H](n4cnc5c(=O)[nH]c(N)nc54)O[C@@H]3COP(=O)(O)O[C@H]3C[C@H](n4cc(C)c(=O)[nH]c4=O)O[C@@H]3COP(=O)(O)O[C@H]3C[C@H](n4cc(C)c(=O)[nH]c4=O)O[C@@H]3COP(=O)(O)O[C@H]3C[C@H](n4cnc5c(=O)[nH]c(N)nc54)O[C@@H]3COP(=O)(O)O[C@H]3C[C@H](n4cnc5c(=O)[nH]c(N)nc54)O[C@@H]3COP(=O)(O)O)O2)c(=O)[nH]c1=O | Stable | – | – | 19.2 | inactive | inactive | –
2 | Cc1cn([C@H]2C[C@H](OP(=O)(O)OC[C@H]3O[C@@H](n4c(C(F)(F)F)nc5c(=O)[nH]c(N)nc54)C[C@@H]3OP(=O)(O)OC[C@H]3O[C@@H](n4cnc5c(=O)[nH]c(N)nc54)C[C@@H]3OP(=O)(O)OC[C@H]3O[C@@H](n4cc(C)c(=O)[nH]c4=O)C[C@@H]3OP(=O)(O)OC[C@H]3O[C@@H](n4cnc5c(=O)[nH]c(N)nc54)C[C@@H]3OP(=O)(O)OC[C@H]3O[C@@H](n4cc(C)c(=O)[nH]c4=O)C[C@@H]3OP(=O)(O)OC[C@H]3O[C@@H](n4cnc5c(=O)[nH]c(N)nc54)C[C@@H]3OP(=O)(O)OC[C@H]3O[C@@H](n4cnc5c(=O)[nH]c(N)nc54)C[C@@H]3OP(=O)(O)OC[C@H]3O[C@@H](n4cc(C)c(=O)[nH]c4=O)C[C@@H]3OP(=O)(O)OC[C@H]3O[C@@H](n4cc(C)c(=O)[nH]c4=O)C[C@@H]3OP(=O)(O)OC[C@H]3O[C@@H](n4c(C(F)(F)F)nc5c(=O)[nH]c(N)nc54)C[C@@H]3OP(=O)(O)OC[C@H]3O[C@@H](n4cnc5c(=O)[nH]c(N)nc54)C[C@@H]3O)[C@@H](COP(=O)(O)O[C@H]3C[C@H](n4cc(C)c(=O)[nH]c4=O)O[C@@H]3COP(=O)(O)O[C@H]3C[C@H](n4cnc5c(=O)[nH]c(N)nc54)O[C@@H]3COP(=O)(O)O[C@H]3C[C@H](n4cnc5c(=O)[nH]c(N)nc54)O[C@@H]3COP(=O)(O)O)O2)c(=O)[nH]c1=O | Unstable | 16.8 | Stable | 26.7 | inactive | inactive | –
3 | Cc1cn([C@H]2C[C@H](OP(=O)(O)OC[C@H]3O[C@@H](n4cnc5c(=O)[nH]c(N)nc54)C[C@@H]3OP(=O)(O)OC[C@H]3O[C@@H](n4cnc5c(=O)[nH]c(N)nc54)C[C@@H]3OP(=O)(O)OC[C@H]3O[C@@H](n4cc(C)c(=O)[nH]c4=O)C[C@@H]3OP(=O)(O)OC[C@H]3O[C@@H](n4cnc5c(=O)[nH]c(N)nc54)C[C@@H]3OP(=O)(O)OC[C@H]3O[C@@H](n4cc(C)c(=O)[nH]c4=O)C[C@@H]3OP(=O)(O)OC[C@H]3O[C@@H](n4cnc5c(=O)[nH]c(N)nc54)C[C@@H]3OP(=O)(O)OC[C@H]3O[C@@H](n4cnc5c(=O)[nH]c(N)nc54)C[C@@H]3OP(=O)(O)OC[C@H]3O[C@@H](n4cc(C)c(=O)[nH]c4=O)C[C@@H]3OP(=O)(O)OC[C@H]3O[C@@H](n4cc(C)c(=O)[nH]c4=O)C[C@@H]3OP(=O)(O)OC[C@H]3O[C@@H](n4c(C(F)(F)F)nc5c(=O)[nH]c(N)nc54)C[C@@H]3OP(=O)(O)OC[C@H]3O[C@@H](n4cnc5c(=O)[nH]c(N)nc54)C[C@@H]3O)[C@@H](COP(=O)(O)O[C@H]3C[C@H](n4cc(C)c(=O)[nH]c4=O)O[C@@H]3COP(=O)(O)O[C@H]3C[C@H](n4cnc5c(=O)[nH]c(N)nc54)O[C@@H]3COP(=O)(O)O[C@H]3C[C@H](n4cnc5c(=O)[nH]c(N)nc54)O[C@@H]3COP(=O)(O)O)O2)c(=O)[nH]c1=O | Unstable | 7.6 | – | 29.1 | inactive | inactive | 60
4 | Cc1cn([C@H]2C[C@H](OP(=O)(O)OC[C@H]3O[C@@H](n4c(C(F)(F)F)nc5c(=O)[nH]c(N)nc54)C[C@@H]3OP(=O)(O)OC[C@H]3O[C@@H](n4cnc5c(=O)[nH]c(N)nc54)C[C@@H]3OP(=O)(O)OC[C@H]3O[C@@H](n4cc(C)c(=O)[nH]c4=O)C[C@@H]3OP(=O)(O)OC[C@H]3O[C@@H](n4cnc5c(=O)[nH]c(N)nc54)C[C@@H]3OP(=O)(O)OC[C@H]3O[C@@H](n4cc(C)c(=O)[nH]c4=O)C[C@@H]3OP(=O)(O)OC[C@H]3O[C@@H](n4c(C(F)(F)F)nc5c(=O)[nH]c(N)nc54)C[C@@H]3OP(=O)(O)OC[C@H]3O[C@@H](n4cnc5c(=O)[nH]c(N)nc54)C[C@@H]3OP(=O)(O)OC[C@H]3O[C@@H](n4cc(C)c(=O)[nH]c4=O)C[C@@H]3OP(=O)(O)OC[C@H]3O[C@@H](n4cc(C)c(=O)[nH]c4=O)C[C@@H]3OP(=O)(O)OC[C@H]3O[C@@H](n4c(C(F)(F)F)nc5c(=O)[nH]c(N)nc54)C[C@@H]3OP(=O)(O)OC[C@H]3O[C@@H](n4cnc5c(=O)[nH]c(N)nc54)C[C@@H]3O)[C@@H](COP(=O)(O)O[C@H]3C[C@H](n4cc(C)c(=O)[nH]c4=O)O[C@@H]3COP(=O)(O)O[C@H]3C[C@H](n4cnc5c(=O)[nH]c(N)nc54)O[C@@H]3COP(=O)(O)O[C@H]3C[C@H](n4c(C(F)(F)F)nc5c(=O)[nH]c(N)nc54)O[C@@H]3COP(=O)(O)O)O2)c(=O)[nH]c1=O | Unstable | 30 | Stable | 18.6 | – | Active | –

The next lines start with results.

Row | Stabilty [2] | deltaTm [5] [°C] | Stabilty [6] | SMILES | PT [1] [s] | Activity [3] | Activity [4] | Activity [7] [%]
5 | Unstable | -3.1 | – | Cc1cn([C@H]2C[C@H](OP(=O)(O)OC[C@H]3O[C@@H](n4cnc5c(=O)[nH]c(N)nc54)C[C@@H]3OP(=O)(O)OC[C@H]3O[C@@H](n4cnc5c(=O)[nH]c(N)nc54)C[C@@H]3OP(=O)(O)OC[C@H]3O[C@@H](n4cc(C)c(=O)[nH]c4=O)C[C@@H]3OP(=O)(O)OC[C@H]3O[C@@H](n4c(C(F)(F)F)nc5c(=O)[nH]c(N)nc54)C[C@@H]3OP(=O)(O)OC[C@H]3O[C@@H](n4cc(C)c(=O)[nH]c4=O)C[C@@H]3OP(=O)(O)OC[C@H]3O[C@@H](n4cnc5c(=O)[nH]c(N)nc54)C[C@@H]3OP(=O)(O)OC[C@H]3O[C@@H](n4cnc5c(=O)[nH]c(N)nc54)C[C@@H]3OP(=O)(O)OC[C@H]3O[C@@H](n4cc(C)c(=O)[nH]c4=O)C[C@@H]3OP(=O)(O)OC[C@H]3O[C@@H](n4cc(C)c(=O)[nH]c4=O)C[C@@H]3OP(=O)(O)OC[C@H]3O[C@@H](n4cnc5c(=O)[nH]c(N)nc54)C[C@@H]3OP(=O)(O)OC[C@H]3O[C@@H](n4cnc5c(=O)[nH]c(N)nc54)C[C@@H]3O)[C@@H](COP(=O)(O)O[C@H]3C[C@H](n4cc(C)c(=O)[nH]c4=O)O[C@@H]3COP(=O)(O)O[C@H]3C[C@H](n4cnc5c(=O)[nH]c(N)nc54)O[C@@H]3COP(=O)(O)O[C@H]3C[C@H](n4cnc5c(=O)[nH]c(N)nc54)O[C@@H]3COP(=O)(O)O)O2)c(=O)[nH]c1=O | 19.1 | – | – | –
6 | Unstable | -17.3 | – | Cc1cn([C@H]2C[C@H](OP(=O)(O)OC[C@H]3O[C@@H](n4cnc5c(=O)[nH]c(N)nc54)C[C@@H]3OP(=O)(O)OC[C@H]3O[C@@H](n4cnc5c(=O)[nH]c(N)nc54)C[C@@H]3OP(=O)(O)OC[C@H]3O[C@@H](n4cc(C)c(=O)[nH]c4=O)C[C@@H]3OP(=O)(O)OC[C@H]3O[C@@H](n4cnc5c(=O)[nH]c(N)nc54)C[C@@H]3OP(=O)(O)OC[C@H]3O[C@@H](n4cc(C)c(=O)[nH]c4=O)C[C@@H]3OP(=O)(O)OC[C@H]3O[C@@H](n4cnc5c(=O)[nH]c(N)nc54)C[C@@H]3OP(=O)(O)OC[C@H]3O[C@@H](n4cnc5c(=O)[nH]c(N)nc54)C[C@@H]3OP(=O)(O)OC[C@H]3O[C@@H](n4cc(C)c(=O)[nH]c4=O)C[C@@H]3OP(=O)(O)OC[C@H]3O[C@@H](n4cc(C)c(=O)[nH]c4=O)C[C@@H]3OP(=O)(O)OC[C@H]3O[C@@H](n4cnc5c(=O)[nH]c(N)nc54)C[C@@H]3OP(=O)(O)OC[C@H]3O[C@@H](n4cnc5c(=O)[nH]c(N)nc54)C[C@@H]3O)[C@@H](COP(=O)(O)O[C@H]3C[C@H](n4cc(C)c(=O)[nH]c4=O)O[C@@H]3COP(=O)(O)O[C@H]3C[C@H](n4c(C(F)(F)F)nc5c(=O)[nH]c(N)nc54)O[C@@H]3COP(=O)(O)O[C@H]3C[C@H](n4cnc5c(=O)[nH]c(N)nc54)O[C@@H]3COP(=O)(O)O)O2)c(=O)[nH]c1=O | 9.9 | – | – | –

Reference: ChEMBL document CHEMBL4765467, “Improving Thermodynamic Stability and Anticoagulant Activity of a Thrombin Binding Aptamer by Incorporation of 8-trifluoromethyl-2'-deoxyguanosine” (J Med Chem, 2021)
